Data published in a melting point compilation (Tetko et al.; mined from patent text by program, amines drawn as free bases though some values may be those of a salt).

**Q.** With `O=C(O)c1cc([N+](=O)[O-])ccc1Sc1cccc(Br)c1` as the compound, how does the melting point read?
**A.** 202 to 206 °C

**Q.** For `CCNC(=O)Nc1ccc(-c2sc3c(c2CN(C)CCOC)c(=O)n(-c2ccc(N)cc2)c(=O)n3Cc2c(F)cccc2F)cc1`, which melting point is on record?
**A.** 205 to 207 °C

**Q.** For `N#Cc1nn(-c2c(Cl)cc(C(F)(F)F)cc2Cl)c(C=O)c1SC(F)(F)F`, which melting point is on record?
**A.** 90 °C

**Q.** Which melting point does the source give for `N#CCc1cc(Cl)cc(Cc2nc3c(F)c(F)cc(F)c3s2)c1` here?
**A.** 114 to 117 °C

**Q.** With `CNc1ccc(CN2C(=O)C(C)(c3ccccc3Cl)c3cc(Cl)ccc32)c(OC)c1` (stereo not drawn) as the compound, how does the melting point read?
**A.** 226 °C

**Q.** Which melting point does the source give for `CCOC(=O)[C@H](Cc1ccc(O)cc1)NC(=O)C1(NC(=O)[C@@H](SC(=O)C2CCCC2)C(C)C)CCCC1` here?
**A.** 130 to 131 °C

**Q.** Which melting point does the source give for `COc1ccc(CCc2ccc(-n3c(C)nc4cnccc43)cc2)cc1OC1CCCC1` here?
**A.** 123 to 125 °C

**Q.** Which melting point does the source give for `COc1ccc(OCCO[N+](=O)[O-])c(C2NC(C(=O)O)CS2)c1` (stereo not drawn) here?
**A.** 110 to 112 °C

**Q.** Which melting point does the source give for `N#Cc1c[nH]nc1-c1ccc([N+](=O)[O-])o1` here?
**A.** 238 to 239 °C

**Q.** Which melting point does the source give for `CONCc1cc(-n2c(=O)cc(C(F)(F)F)n(C)c2=O)ccc1Cl` here?
**A.** 83 to 85 °C

**Q.** With `CCOCCC(Cc1ccc(NC(=O)NC(=O)c2ccc(C#N)cc2)cc1)C(=O)OC(C)(C)C` (stereo not drawn) as the compound, how does the melting point read?
**A.** 144 to 145 °C

**Q.** For `CN1CCN(CCCNc2ncc3cc(-c4c(Cl)cccc4Cl)c(=O)n(C)c3n2)CC1`, which melting point is on record?
**A.** 170 to 172 °C

**Q.** With `CSCC(=O)[C@H](Cc1ccccc1)NC(=O)[C@H](CC(C)C)NC(=O)OCc1ccccc1` as the compound, how does the melting point read?
**A.** 81 to 91 °C

**Q.** For `O=C(N[C@H](Cc1ccccc1)C(=O)O)OCc1ccc2oc(Cc3ccccc3)cc2c1`, which melting point is on record?
**A.** 201 to 204 °C

**Q.** For `CCOC(=O)c1cc2c(ccc3nc(O)c(O)nc32)s1`, which melting point is on record?
**A.** 357 °C

**Q.** For `COC(C)=CC(=O)NC1CCCCCCC1`, which melting point is on record?
**A.** 116 °C

**Q.** With `CS(=O)(=O)c1ccc(-c2c(OCC(=O)c3ccc(F)cc3)nn(CC(=O)c3ccc(F)cc3)c2-c2ccc(F)cc2)cc1` as the compound, how does the melting point read?
**A.** 191 to 193 °C

**Q.** Which melting point does the source give for `O=C(Nc1ccc2ccc(-c3cccc(Br)c3)nc2n1)c1cccc(Br)c1` here?
**A.** 144 to 146 °C

**Q.** Which melting point does the source give for `CC(=O)Oc1cc(COC(=O)c2ccccc2)cnc1C` here?
**A.** 57 °C

**Q.** With `C=CCOc1cc(C(=O)OCC)nc2c(CCC)c3oc(C(=O)OCC)cc(=O)c3cc12` as the compound, how does the melting point read?
**A.** 151 to 153 °C

**Q.** With `CC#CCOc1nsc(-c2cccc(F)c2)n1` as the compound, how does the melting point read?
**A.** 68.7 °C

**Q.** With `Cc1ccc2c(c1)[nH]c(=O)n2CCCO` as the compound, how does the melting point read?
**A.** 114 °C

**Q.** Which melting point does the source give for `Cc1oc(-c2ccccc2)nc1CCOc1cccc2sccc12` here?
**A.** 130 to 132 °C

**Q.** Which melting point does the source give for `O=C(/C=C/C=C/c1ccccc1[N+](=O)[O-])NCCCCCC(=O)NO` here?
**A.** 131 to 133 °C

**Q.** With `COc1cc2c(cc1OC)C(C=O)c1ccccc1CC2` (stereo not drawn) as the compound, how does the melting point read?
**A.** 130 to 132 °C

**Q.** For `CN1CCN(c2cc(Cl)cc3c2c(=O)n(Cc2ccccc2O)c(=O)n3Cc2ccccc2)CC1`, which melting point is on record?
**A.** 130 to 132 °C

**Q.** For `O=C1C(CCO)Oc2cc(F)ccc2N1Cc1ccccc1[N+](=O)[O-]` (stereo not drawn), which melting point is on record?
**A.** 123 to 124 °C

**Q.** With `Clc1nc2c([nH]1)CCCCC2` as the compound, how does the melting point read?
**A.** 214 to 215 °C

**Q.** With `Nc1c(-c2ccc(-c3ccccc3F)cc2)nc2ccc(C(F)(F)F)cc2c1C(=O)O` as the compound, how does the melting point read?
**A.** 255 to 260 °C

**Q.** With `COc1ccc(/C=C/S(=O)(=O)CS(=O)(=O)/C=C/c2ccc(OC)c(O)c2)cc1N` as the compound, how does the melting point read?
**A.** 148 to 150 °C

**Q.** For `CCOc1ccc(-c2nc(-c3cc(C(=O)O)ccn3)cs2)cc1OCC`, which melting point is on record?
**A.** 236 to 237 °C

**Q.** For `CCCCCN(C)C(=O)c1ccc(Cl)nn1`, which melting point is on record?
**A.** 98 to 101 °C

**Q.** Which melting point does the source give for `CC12CCC=CC1=CCC1C2CCC2(C)C(c3cccnc3)=CCC12` (stereo not drawn) here?
**A.** 110 to 112 °C

**Q.** For `CCn1c(Cl)c(C=NO)c(=O)n(CC)c1=O`, which melting point is on record?
**A.** 92 to 94 °C

**Q.** For `Cc1ccc(N2CCN(CCC3CN(C)C(=O)O3)CC2)cc1` (stereo not drawn), which melting point is on record?
**A.** 96 to 97 °C

**Q.** With `CC1SC(=O)NN=C1c1ccc2c(c1)CCCN2C(=O)c1ccc2c(c1)OCO2` (single isomer, unassigned; (-)) as the compound, how does the melting point read?
**A.** 180 °C

**Q.** With `N#Cc1c(SC(F)(F)F)c(N)n(-c2c(Cl)cc(C(F)(F)F)cc2Cl)c1C#N` as the compound, how does the melting point read?
**A.** 175 to 177 °C

**Q.** Which melting point does the source give for `CC(=O)SCSCc1cn(C(c2ccccc2)(c2ccccc2)c2ccccc2)nn1` here?
**A.** 106 °C

**Q.** For `COc1cc(CC(=O)N2CCN(C(=O)CNC3CCN(Cc4ccccc4)CC3)C(c3ccccc3)C2)cc(OC)c1OC` (stereo not drawn), which melting point is on record?
**A.** 53 to 56 °C

**Q.** Which melting point does the source give for `CCN(CC)C1=NC(=O)C(=Cc2cccc(-c3ccc(O)c(C45CC6CC(CC(C6)C4)C5)c3)c2)S1` here?
**A.** 275 to 277 °C

**Q.** With `[N-]=[N+]=NS(=O)(=O)c1cc(C(=O)O)cc(S(=O)(=O)N=[N+]=[N-])c1` as the compound, how does the melting point read?
**A.** 181 to 183 °C

**Q.** With `O=S(=O)(c1cccnc1)N1CCC(Nc2nc(Nc3cccc(C(F)(F)F)c3)nc(OCC(F)(F)F)n2)CC1` as the compound, how does the melting point read?
**A.** 222 to 224 °C

**Q.** With `O=C(Nc1ccc(F)cc1)N1CCc2cc(S(=O)(=O)N3CCN(c4cccc(Cl)c4)CC3)ccc21` as the compound, how does the melting point read?
**A.** 192 to 194 °C

**Q.** Which melting point does the source give for `COc1ccc(-c2ccc(C(F)(F)CC(CC(O)CSc3ccccc3)C(=O)O)cc2)cc1` (stereo not drawn) here?
**A.** 85 to 86 °C

**Q.** With `Cc1oc(-c2ccccc2)nc1C=Cc1ccc(/C=C/C=C2/OC(=O)NC2=O)cc1` as the compound, how does the melting point read?
**A.** 274 to 275 °C

**Q.** Which melting point does the source give for `CC(N1CCN(c2ncnn2Cc2ccc(C(C)(C)C)cc2)CC1)C(O)(Cn1cncn1)c1ccc(F)cc1F` (stereo not drawn) here?
**A.** 73 to 75 °C

**Q.** For `Cc1cc(C)cc(OCC(=O)c2ccc(C(C)C)cc2)c1`, which melting point is on record?
**A.** 68 to 69 °C

**Q.** Which melting point does the source give for `CCCN(CCC)CCCCCOc1ccc2oc(-c3cccc(OC)c3)cc(=O)c2c1` here?
**A.** 80 to 81 °C
